Consider three molecules from patent US11185616B2, “Implantable medical products, a process for the preparation thereof, and use thereof” (priority 2016, dated 2021).

In assay [1] the test system is thromboxane A2 in platelets. To be noted: Köfeler et al. 2000; cited from earlier work.
A further assay has as its system S. aureus ATCC. Description: rifampicin resistance development, passaging experiment. Format: cell-based. As to conditions: parallel culture with rifampicin-MHC doping. Here is the method: (§1) 10 ml tubes with Müller-Hinton broth (MHB) was brought to a concentration of about 10^6 CPU with 0.01 ml of an overnight culture with S. epidermidis RP62A and S. aureus ATCC, and provided with the respective MHC of rifampicin and miconazole. An aliquot was taken from the overnight cultures, brought into new MHB tubes (about 10^6 CPU), and again incubated over night. This was repeated up to 50 times, and the resistant isolates were frozen.

Another assay deals with S. epidermidis RP62A. The assay is described as above. To be noted: parallel culture with rifampicin-MHC doping. Format: cell-based. On the procedure: as §1

As to `Clc1ccc(COC(Cn2ccnc2)c2ccc(Cl)cc2Cl)c(Cl)c1` (stereo not shown) [Miconazole, miconazole], in assay [1], the “inhibition of synthesis of thromboxane A2 in platelets” value is “selectively inhibit”.
As for `Clc1ccccc1C(c1ccccc1)(c1ccccc1)n1ccnc1` [clotrimazole], the “inhibition of synthesis of thromboxane A2 in platelets” value in assay [1] is listed as “selectively inhibit”.
In the case of `CO[C@H]1/C=C/O[C@@]2(C)Oc3c(C)c(O)c4c(O)c(c(/C=N/N5CCN(C)CC5)c(O)c4c3C2=O)NC(=O)/C(C)=C\C=C\[C@H](C)[C@H](O)[C@@H](C)[C@@H](O)[C@@H](C)[C@H](OC(C)=O)[C@@H]1C` [rifampicin], the resistance frequencies in the assay with S. aureus ATCC and in the assay on S. epidermidis RP62A was 10^−6 each time.
